The assay addresses 3-phosphoinositide-dependent protein kinase 1 (PDPK1) (Homo sapiens) (UniProt O15530). Kind of assay: Inhibition of PDK1.

A value given as a limit tells only on which side of the number the result lay.

Usually IC50 stands for the concentration that gives 50% inhibition. Lower therefore signals higher potency. As for `CCOC(=O)c1cnn2c(-c3cccc(NC(=O)c4cccc(C(F)(F)F)c4)c3)ccnc12` [ethyl 7-(3-(3-(trifluoromethyl)benzamido)phenyl)pyrazolo[1,5-a]pyrimidine-3-carboxylate], the IC50 is more than 10 µM.

Source of the values: BindingDB's records for doi:10.1016/j.bmcl.2009.03.129 (Wyeth Research, 2009).
